Structures are written as SMILES.

For orientation: melting point means the temperature of the solid-liquid transition.

Compound `CC1(C)CC1(CN)C(=O)O` (stereo not shown) showed a melting point of 254 to 256 °C. `CCC(CC)C1CC1(CN)C(=O)O` (stereo not shown) had a melting point of 255 to 257 °C. `NCC1(C(=O)O)CC1C1CCCCC1` (stereo not shown): the melting point is 270 °C (dec.). As to `NCC1(C(=O)O)CC12CCCC2` (stereo not shown), the melting point was 231 to 235 °C (dec.). `CC(C)C1CC1(CN)C(=O)O.Cl` (stereo not shown) came in with a melting point of 245 to 246 °C.

Take `CCCC1(CCC)CC1(CN)C(=O)O` (stereo not shown): the melting point lay within 255 to 257 °C. As for `Cl.NCC1(C(=O)O)CC12CCCCC2` (stereo not shown) [Example 1, 1-AMINOMETHYL-SPIRO[2.5]OCTANE-1-CARBOXYLIC ACID HYDROCHLORIDE], the melting point was > 250 °C (dec.). For `CC(C)CC1CC1(CN)C(=O)O.Cl` (stereo not shown) [Example 6, 1-AMINOMETHYL-2-ISOBUTYL-CYCLOPROPANECARBOXYLIC ACID HYDROCHLORIDE], the melting point was > 220 °C (dec.).

Take `Cl.NCC1(C(=O)O)CC12CCCCC2` (stereo not shown) [Example 14]: the melting point is 240 to 242 °C. The same measure for `CC(C)CC1CC1(CN)C(=O)O.Cl` (stereo not shown) [Example 15]: 254 to 255 °C.

The values above are taken from US7030267B2, “Cycloproply β-amino acid derivatives” (Warner-Lambert Company, LLC, priority 2003, dated 2006).
